Test results published in article PMC8973346, “Dissecting The role of Plasmodium metacaspase-2 in malaria gametogenesis and sporogony” (Emerging Microbes & Infections, 2022).

Target: T1, PfMCA-2 (metacaspase-2) (Plasmodium falciparum, UniProt Q8IL84)
T1 construct: gene MCA2; catalytic domain
Assay: fluorogenic Z-GRR-AMC cleavage assay with recombinant enzyme, Michaelis-Menten nonlinear regression
Assay type: biochemical

T1 sequence (Q8IL84 1650-2020): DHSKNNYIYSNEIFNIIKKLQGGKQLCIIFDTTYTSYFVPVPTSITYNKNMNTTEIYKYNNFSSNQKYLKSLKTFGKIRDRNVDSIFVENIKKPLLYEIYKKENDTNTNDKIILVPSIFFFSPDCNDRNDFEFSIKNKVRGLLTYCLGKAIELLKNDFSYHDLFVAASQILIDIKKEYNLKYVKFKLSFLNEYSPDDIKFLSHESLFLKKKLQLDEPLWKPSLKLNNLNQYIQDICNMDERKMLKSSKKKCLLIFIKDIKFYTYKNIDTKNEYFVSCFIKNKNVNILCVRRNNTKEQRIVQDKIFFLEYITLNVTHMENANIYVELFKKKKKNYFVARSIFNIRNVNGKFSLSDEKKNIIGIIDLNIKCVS

SMILES | Ki
CC(C)c1ccc(CNc2ccc3oc(CC4CCCCC4)nc3c2)cc1 [C-532] | 2.1 ± 0.12 nM
CCCc1ccc(CNc2ccc3oc(CC4CCCCC4)nc3c2)cc1 [C-533] | 1.62 ± 0.22 nM
